Data reported in patent publication EP3597653A1, “CYCLIC INHIBITORS OF HEPATITIS B VIRUS” (IRBM S.P.A., priority 2018, dated 2020).

Each compound was assayed on HBV (assay: HBV inhibition assay in HepAD38 cells (extracellular HBV DNA by direct qPCR)). Conditions: Hepatitis B virus, compound at 0.1 µM, 96 hours, relative to non-treated reference, read-out: Anti HBV Activity (conc µM).
Type: cell-based
Summary of the method: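 HepAD38 cells (HepG2, tetracycline-off HBV) induced in tetracycline-free medium, treated 96 h at 37 °C with compound, 0.5% DMSO. Extracellular HBV DNA quantified by direct SYBR qPCR of lysed supernatant, as % of untreated; EC50 from 8-point 1:2 curves; cytotoxicity by CellTiter-Blue.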
In the case of `Cc1cc2c(cc1C(=O)Nc1cc(F)c(F)c(F)c1)S(=O)(=O)N([C@H]1CC[C@H](O)CC1)C(=O)N2` [Example E122, trans-2-(4-hydroxycyclohexyl)-6-methyl-3-oxo-N-(3,4,5-trifluorophenyl)-3,4-dihydro-2H-benzo[e][1,2,4]thiadiazine-7-carboxamide 1,1-dioxide], the inhibition at 0.1 µM is reported as greater than 50%. `O=C(Nc1ccc(F)c(Cl)c1)c1ccc2c(c1)S(=O)(=O)N([C@H]1CC[C@H](O)CC1)C(=O)N2` [Example E123, N-(3-chloro-4-fluorophenyl)-2-((1r,4r)-4-hydroxycyclohexyl)-3-oxo-3,4-dihydro-2H-benzo[e][1,2,4]thiadiazine-7-carboxamide 1,1-dioxide] was tested, and the inhibition at 0.1 µM was greater than 50%.

Same assay, conditions: Hepatitis B virus, compound at 0.5 µM, 96 hours, relative to non-treated reference, read-out: Anti HBV Activity (conc µM)
Compound `O=C(Nc1cc(F)c(F)c(F)c1)c1cnc2c(c1)S(=O)(=O)N([C@H]1CC[C@H](O)CC1)C(=O)N2` [Example E121, trans-2-(4-hydroxycyclohexyl)-3-oxo-N-(3,4,5-trifluorophenyl)-3,4-dihydro-2H-pyrido[2,3-e][1,2,4]thiadiazine-7-carboxamide 1,1-dioxide] has an inhibition at 0.5 µM of less than 50%. `O=C(Nc1cc(F)c(F)c(F)c1)c1ccc2c(c1)S(=O)(=O)N([C@H]1C[C@@H](O)C1)C(=O)N2` [Example E124, Cis-2-(3-hydroxycyclobutyl)-3-oxo-N-(3,4,5-trifluorophenyl)-3,4-dihydro-2H-benzo[e][1,2,4]thiadiazine-7-carboxamide 1,1-dioxide] showed an inhibition at 0.5 µM greater than 50%. `O=C(Nc1cc(F)c(F)c(F)c1)c1ccc2c(c1)S(=O)(=O)N([C@H]1C[C@H](O)C1)C(=O)N2` [Example E125, Trans-2(3-hydroxycyclobutyl)-3-oxo-N-(3,4,5-trifluorophenyl)-3,4-dihydro-2H-benzo[e][1,2,4]thiadiazine-7-carboxamide 1,1-dioxide] gave an inhibition at 0.5 µM greater than 50%.

Same assay, conditions: Hepatitis B virus, compound at 1 µM, 96 hours, relative to non-treated reference, read-out: Anti HBV Activity (conc µM)
`CC(C)(C)OC(=O)N1CCN2C(COc3ccc(C(=O)Nc4cc(F)c(F)c(F)c4)cc3S2(=O)=O)C1` (stereo not drawn) [Example E114, tert-butyl 8-((3,4,5-trifluorophenyl)carbamoyl)-3,4,12,12a-tetrahydrobenzo[b]pyrazino[1,2-e][1,4,5]oxathiazepine-2(1H)-carboxylate 6,6-dioxide] showed an inhibition at 1 µM of less than 50%. `O=C(Nc1cc(F)c(F)c(F)c1)c1ccc2c(c1)S(=O)(=O)N1CCNCC1CO2` (stereo not drawn) [Example E115, N-(3,4,5-trifluorophenyl)-1,2,3,4,12,12a-hexahydrobenzo[b]pyrazino[1,2-e][1,4,5]oxathiazepine-8-carboxamide 6,6-dioxide] was tested, and the inhibition at 1 µM was less than 50%. In the case of `CC(=O)N1CCN2C(COc3ccc(C(=O)Nc4cc(F)c(F)c(F)c4)cc3S2(=O)=O)C1` (stereo not drawn) [Example E116, 2-acetyl-N-(3,4,5-trifluorophenyl)-1,2,3,4,12,12a-hexahydrobenzo[b]pyrazino[1,2-e][1,4,5]oxathiazepine-8-carboxamide 6,6-dioxide], the inhibition at 1 µM is reported as less than 50%. `O=C(Nc1cc(F)c(F)c(F)c1)c1ccc2c(c1)S(=O)(=O)N1CC(C1)O2` [Example E117, N-(3,4,5-trifluorophenyl)-3,4-dihydro-2,4-methanobenzo[b][1,4,5]oxathiazepine-8-carboxamide 1,1-dioxide] was tested, and the inhibition at 1 µM was less than 50%. `O=C(Nc1cc(F)c(F)c(F)c1)c1ccc2c(c1)S(=O)(=O)N1CCC(C1)O2` (stereo not drawn) [Example E118, N-(3,4,5-trifluorophenyl)-4,5-dihydro-3H-2,5-methanobenzo[b][1,4,5]oxathiazocine-9-carboxamide 1,1-dioxide] was tested, and the inhibition at 1 µM was less than 50%. Compound `O=C(Nc1ccc(F)c(F)c1)c1ccc2c(c1)S(=O)(=O)NC(CO)N2` (stereo not drawn) [Example E119, N-(3,4-difluorophenyl)-3-(hydroxymethyl)-3,4-dihydro-2H-benzo[e][1,2,4]thiadiazine-7-carboxamide 1,1-dioxide] has an inhibition at 1 µM greater than 50%. Work on `CC1(C)Nc2ccc(C(=O)Nc3ccc(F)c(F)c3)cc2S(=O)(=O)N1` [Example E120, N-(3,4-difluorophenyl)-3,3-dimethyl-3,4-dihydro-2H-benzo[e][1,2,4]thiadiazine-7-carboxamide 1,1-dioxide] yielded an inhibition at 1 µM greater than 50%.
